Test system: hVEGF-A-#33 cell line
Experiment: Screening for diversification-promoting compounds by FCM (hIgG+_hVEGF-A− population)
Assay type: cell-based, chicken
Conditions: hVEGF-A-#33 cells expressing human IgG, versus negative control CS(−)
Description: Frozen stocks of the hVEGF-A #33 cell line and the hVEGF-A #44 cell line (3.0×10^6 cells) were each awaken with a CS(-) medium, using a 25 cm^2 Flask (Corning, 430639), and were then cultured in a CO2 incubator (SANYO CO2 Incubator MCO-20AIC, 39.5° C., 5% CO2). On the following day, the cells were seeded on a 6-well dish (Nunc, 140675) to a cell density of 1.0×10^4 cells/mL (wherein the cell concentration and the survival rate were measured using CASY cell counter (Nepa Gene)). The cells were cultured in a CS(+) medium, in the presence or absence of a PI3Kα inhibitor ([…]: 10 μM, PI3Kα Inhibitor 2: 500 nM). Moreover, after the cells had been cultured for 2 days, individual samples were subcultured under the same conditions to result in a cell density of 1.0×10^4 cells/mL. Further, after completion of the culture for 3 days, individual samples were subcultured under the same conditions to result in a cell density of 6.0×10^4 cells/mL, and the culture was continued. After completion of the culture for 2 days (Day 7 of the culture), individual samples were centrifuged to remove a supernatant, and the residue was then suspended in a CS(+) medium supplemented with 1 μM FK-506 (hereinafter referred to as a “CS/FK medium”). The suspension was centrifuged again to remove a supernatant. This washing step was carried out repeatedly twice, and individual samples were then suspended in a CS/FK medium supplemented with AF647-labeled hVEGF-A (10 nM) and 2,000-fold diluted Goat Anti-Human IgG-PE. The light was shielded, and the obtained suspension was then reacted at 4° C. for 30 min. After completion of the staining, the reaction mixture was washed with a CS/FK medium twice, and each sample was then suspended in the CS/FK medium. Thereafter, using FACS Aria Fusion (BD), FCM and single cell sorting was carried out. Dead cells were removed using FSC-SSC plot. A plot, in which the vertical axis indicated AF647 (AF647-labeled hVEGF-A) and the longitudinal axis indicated PE (Goat Anti-Human IgG-PE), was developed, and the percentage of PE+(hIgG+)/AF647-(hVEGF-A-) cells was then calculated. In order to make a comparison regarding the number of cells with improved antigen-binding ability according to Affinity Maturation under individual conditions, Affinity Maturation Gate was established according to the following criteria. First, the plot was converted to a contour plot in FCM analysis, and a trapezoid gate having an inclination that was in parallel with the contour of a population in which the most cells were gathered (hereinafter referred to as a “main population”) was established. […] At that time, the vertex of the trapezoid gate was set to be overlapped with the mean value MFI of the main population, and then, a cell population having low antigen-binding ability and a cell population having a low expression level of antibody were set not to enter the gate. The percentage of clones with improved antigen-binding ability was calculated by counting the number of cells existing in this Affinity Maturation Gate and then dividing the obtained value by the total number of the analyzed cells. […]

Compound | percentage of hIgG+_hVEGF-A− cell population (diversification-promoting effect)
Oc1cccc(-c2nc(N3CCOCC3)c3oc4ncccc4c3n2)c1 [PI-103] | increased in comparison to the negative control (CS(−))
O=C1NC(=O)/C(=C/c2ccc3nccc(-c4ccncc4)c3c2)S1 [GSK1059615] | increased in comparison to the negative control (CS(−))
COc1ccc2c(c1OC)N=C(NC(=O)c1cccnc1)N1CCN=C21 [PIK-90] | increased in comparison to the negative control (CS(−))
N#Cc1ccc(-c2c(-c3ncn[nH]3)sc(N3CCOCC3)c2C#N)c(F)c1 [PF-4989216] | increased in comparison to the negative control (CS(−))

From US11572402B2, “Method for promoting diversification of antibody variable region” (Chiome Bioscience Inc., priority 2017, dated 2023)
